Common to all, as to format: in vivo, mouse
Assay [1] has as its system tumor vasculature of 786-O xenografts. Briefly: IHC of tumor vasculature in 786-O xenografts. On the procedure:
Formalin-fixed paraffin-embedded samples were sectioned at 5 μm thickness and mounted on Superfrost Plus microscope slides (Fisher Scientific). All immunohistochemical (IHC) staining was performed on Bond Rx auto-stainer (Leica Biosystems) using the conventional TSA-amplified detection system. Primary antibodies used were as follows: α-CD31 (Abcam #ab182981), α-smooth muscle actin (SMA; Abcam #ab124964), α-Meca32 (Novus Biologicals #NB100-77668). TSA-conjugated Alexa488 and Alexa647 fluorophores from Invitrogen (#B40953 and #B40958) were used at 1:500 dilution. Slides were counterstained with DAPI and cover slipped using Mowiol antifade mounting media (Sigma #D2522).
Slides were imaged with Aperio Versa 200 (Leica Biosystems) whole-slide scanner using 10×/0.32NA objective, and the data were analyzed using custom-written macros in ImageJ/FIJI (NIH). Briefly, 150 μm of outer edges of the tumor sections were eliminated from the analysis. Gaussian-blurred DAPI channel was used to measure the area of the tissue. Scans of […] were processed with median filter to remove noise, then positive areas were measured with appropriate threshold levels. % positive area for each marker was calculated. CD31-SMA double positive areas were measured via image calculation of the binary images. One-way ANOVA and pair-wise comparisons were performed on the data using Prism GraphPad.
PERK is an adaptive stress response that links hypoxia and nutrient deprivation with proangiogenic signaling. The effect of HC-5404 on tumor vasculature when administered in combination with antiangiogenic VEGFR-TKIs was investigated.
As immature blood vessels mature, they develop a mural layer of cells that express smooth muscle actin (SMA), which encircles and stabilizes the maturing vessel. Co-staining for both CD31 and SMA was conducted to determine whether treatments were affecting mature or immature tumor blood vessels.
This example investigated the inhibition the effect of cabozantinib on the formation of new tumor vasculature and on pericytes following procedures analogous to those described above.

Assay [2] concerns 786-O xenografts progressed on axitinib. The assay is described as follows: growth of 786-O xenografts that progressed on axitinib. The conditions noted are these: single agent 30 mg/kg PO BID, 28 days after progression on axitinib (FIG. 40). An excerpt:
After 14 days of treatments, 77 mice bearing the largest tumors were rerandomized into four PD arms (n=8), four efficacy arms (n=10), and 5 tumors sampled on day of rerandomization as a baseline. The remaining animals were removed from study.
Despite initial responses to VEGFR-TKI therapy, tumor regrowth necessitates subsequent rounds of alternate therapies to improve patient outcomes.

For assay [3], the system named is MB49 syngeneic bladder cancer model. The assay is described as follows: MB49 syngeneic bladder cancer tumor growth. On the procedure: C57BL/6 mice were subcutaneously inoculated with MB49 cells, and treatment started on day 8 post cell inoculation. A group of animals (n=10/group) received either vehicle, HC-5404 (PO, BID) (3 mg/kg, 10 mg/kg, or 30 mg/kg), 5 mg/kg anti-PD-1 antibody (aPD-1) (RMP1-14) (IP, BIW), or the combination of both. At various timepoints, animals were sacrificed, and flow cytometry was performed on blood or single cell suspensions from tumors or lymph nodes (n=6).
MB49 (lot #18B016) mouse urothelial carcinoma cell line was purchased from Sigma—The European Collection of Authenticated Cell Cultures (ECACC). Cells were free of human and animal pathogens as tested by h-IMPACT-I and IMPACT-III (IDEXX Bioresearch, Columbia, MO). Additionally, the genetic profile of the cells matched with the ECACC reference standard as tested by STR based DNA fingerprinting assay. Cells were maintained in DMEM with 10% FBS, and cultured up to 4 passages prior to implantation. Cells were harvested at ~80% confluence, washed twice with DMEM without FBS and suspended in DMEM without FBS at 5×10^6 cells/mL for implantation.
[…] (7-8 week of age) were implanted into the right flank area subcutaneously under Isoflurane anesthesia with 0.5×10^6 MB49 cells/mouse in a total volume of […] on Day 0. Animals were randomized into treatment groups when the average tumor volume reached ~50 mm^3 on Day 5 post inoculation.
Tumor volume was measured twice weekly.
Tumor volume was calculated using the formula [tumor volume (mm^3)=π/6×length×width^2) and plotted as means±SEM. The % T/C (ratio between the tumor volume in the treated group and in the control group) was calculated by the formula 100×ΔT/ΔC, if ΔT>0 of the mean values. ΔT, mean tumor volume of the drug-treated group on the observation day of the study—mean tumor volume of the drug-treated group on initial day of dosing; ΔC, mean tumor volume of the control group on the observation day of the study—mean tumor volume of the control group on initial day of dosing. Regression was calculated using the formula=100×ΔT/Tinitial, if ΔT<0. Animals with <14 mm^3 tumor volume for three consecutive measurements were considered as complete responders and tumors with >50% regressions were partial responders.
This example investigated the effect of HC-5404, aPD-1, and HC-5404 in combination with aPD-1 on myeloid cells in tumor microenvironment and T-cell activation following procedures analogous to those described above using MB49 syngeneic model. […] Mice with established syngeneic MB49 tumors were randomized 6 days post tumor inoculation into groups that received either vehicle (0.5% methylcellulose in water, BID, PO), HC-5404 (10 or 30 mg/kg, BID, PO), anti-PD-1 Ab (10 mg/kg, BIW), or both HC-5404 and anti-PD-1.

Another assay relates to HMGB1 in 786-O xenograft. The assay is described as follows: HMGB1 IHC in 786-O xenografts. The settings on record: 30 mg/kg, compared to vehicle (FIG. 4D). On the procedure:
786-O tumor cells were maintained in vitro with MEM medium supplemented with 10% heat inactivated fetal bovine serum and 0.01 mM NEAA, at 37 °C in an atmosphere of 5% CO2. Each mouse was inoculated subcutaneously at the right front region with 786-O tumor cells (5×106) in 0.1 ml of PBS (1:1 matrigel) for tumor development. The randomization for efficacy study began when the mean tumor size reached approximately 200-300 mm^3, preferably to initiate with 250 mm^3. […]
Paraffin sections of tumor samples were stained on slides for HMGB1 using the Abcam antibody (cat #ab18256) and chromogenic DAB staining on Bond Rx (Leica Biosystems). The slides were digitized by Leica AT2 slide scanner with 40× objective. The scanned images were analyzed using custom-written macro in ImageJ/FIJI (NIH) to measure nuclear and non-nuclear signal (FIGS. 4C and 4D).

The structures appear in SMILES notation.

On to `Cc1cc(NC(=O)[C@H](O)c2cc(F)cc(F)c2)ccc1-c1cnc(N)c(C(=O)NC(C)C)c1` [HC-5404, (R)-2-amino-5-(4-(2-(3,5-difluorophenyl)-2-hydroxyacetamido)-2-methylphenyl)-N-isopropylnicotinamide], for which the “expression of any vascular markers” value in assay [1] (HC-5404 single agent (FIG. 39)) is “did not affect the expression of any vascular markers”. Moreover, in assay [1] (axitinib study (FIG. 38, 39)), the “proportion of Meca32 expressing vascular endothelial cells” value is recorded as “did not affect this vascular endothelium marker”. In assay [2], the “tumor growth inhibition relative to vehicle” value is 47%. Also, the TGI % in assay [3] (Experiment #1, HC-5404 30 mpk, aPD-1, alone or combined) was determined as 52.99%; in assay [3] (Experiment #2, HC-5404 30 mpk, aPD-1, alone or combined) it was 10.64%. For the same compound, the “tumor growth inhibition (TGI)” value in assay [3] (HC-5404 PO BID, aPD-1 5 mg/kg IP BIW, alone or combined) amounted to 32%. Besides, the “TGI %, average” value in assay [3] (average of two independent studies, HC-5404 30 mpk, aPD-1, alone or combined) is given as 31.82%. Further, in the assay on HMGB1 in 786-O xenograft, the HMGB1 cytoplasmic expression entry is “induced”.

The values are drawn from patent US20260373132A1, “PERK INHIBITORHC-5404 IN COMBINATION WITH ANTI-PD-1 ANTIBODY AND/OR AN ANTIANGIOGENETIC AGENT FOR USE IN THE TREATMENT OF CANCER” (HIBERCELL, INC., priority 2022, published 2026).
